# Reference: US20240277873A1, “ULTRABRIGHT […] PROBES FOR DETECTION AND IMAGING” (Nanyang Technological University, priority 2021, published 2024)
# Experiments:
# NE [1] = molecular target: T1, NE (Homo sapiens, UniProt P08246); experiment: Chemiluminescence and fluorescence changes of BTPDNe and MPDNe in the presence of NE (response, selectivity, LOD, half-life); type: biochemical
# T1 sequence (P08246 30-267): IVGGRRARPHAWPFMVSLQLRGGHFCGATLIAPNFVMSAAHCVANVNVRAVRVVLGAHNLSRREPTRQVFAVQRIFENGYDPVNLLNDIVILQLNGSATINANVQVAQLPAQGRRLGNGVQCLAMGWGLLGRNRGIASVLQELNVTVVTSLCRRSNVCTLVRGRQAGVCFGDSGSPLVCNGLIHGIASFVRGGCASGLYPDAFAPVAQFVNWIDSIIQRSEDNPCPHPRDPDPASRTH
# Description: Chemiluminescence and fluorescence changes of BTPDNe (20 μM) were determined in the presence of NE (0.1 U/ml), other different enzymes (˜0.1 U/mL, APN, ALP, Cas-3, cat B, GGT, β-gal and NTR) in 50 mM Tris, 1 M NaCl, 0.05% (w/v) Brij-35, pH 7.5 at 37° C. after 30 min incubation.
# Chemiluminescence and fluorescence changes of BTPDNe and MPDNe (20 μM) in the presence of NE (0.1 U/mL), or other different enzymes (˜0.1 U/mL, APN, ALP, Cas-3, Cat B, GGT, β-gal, NTR, CatG and PR3) were tested after 30 min incubation in 50 mM Tris, 1 M NaCl, 0.05% (w/v) Brij-35, pH 7.5 at 37° C.
# To determine the LOD for NE enzyme detection, the chemiluminescence of BTPDNe was recorded in 50 mM Tris, 1 M NaCl, 0.05% (w/v) Brij-35, pH 7.5 at 37° C. with different concentrations of NE (0, 0.05, 0.1, 0.5, 1, and 2 U/ml) for 30 min incubation. Then, initial reaction velocity was calculated.
# dorsal skins of mice = experiment: Histopathologic, immunohistochemical and flow cytometry analyses of dorsal skins (IMQ psoriasis model); type: in vivo, BALB/c mice; conditions: fresh slides of dorsal skins, 2-day IMQ treatment, immunofluorescence
# Description: The control group was treated with Vaseline (50 mg/d) and the IMQ-treatment group was applied with IMQ cream (60 mg/d, 5%) once a day. […] Probe BTPDNe (10 uM, 1 mM in DMSO) was thoroughly mixed with Aquaphor (˜10 mg) and applied for psoriasis imaging, followed by poly(methyl methacrylate) microneedle treatment for 1 min. Then, chemiluminescent signals at different time-points (0, 3, 5, 10, 15, 30, 45 and 60 min) after probe-treatment were recorded using IVIS system bioluminescence with acquiring time of 180 s. Until the third day, all the mice were sacrificed to collect tissue and blood for further experiments (hematoxylin and eosin (H&E) staining and flow cytometry analysis) as described in Example 11.
# The dorsal skin samples were separated and soaked in 4% paraformaldehyde (4% PFA) for 12 h and immersed in 30% sucrose solution. The skin samples were stained by hematoxylin and eosin (H&E). Then, the samples were flash-frozen by liquid nitrogen, immobilized with optimal cutting temperature compound, and section slices ([…]). The thickness of epidermis was observed under a microscope (Nikon ECLIPSE 80i microscope). APC-Ly6G, as a neutrophil marker, was used to stain neutrophil cells and DAPI was applied for cell nucleus staining. The immunofluorescence was observed by Nikon ECLIPSE 80i microscope.
# After performing in vivo chemiluminescence imaging of neutrophils using BTPDNe in psoriasis-bearing mice with 2 day IMQ treatment, fresh section slices from dorsal skins were stained with Ly6G. Immunofluorescence imaging of slices with activated BTPDNe in green color was observed upon excitation at 405 nm and emission at 500-550 nm, while red color from Ly6G was observed upon excitation from 633-647 nm and emission at 660 nm. The immunofluorescence imaging was acquired by Nikon ECLIPSE 80i microscope.
# neutrophils = experiment: In vitro cell chemiluminescent imaging; type: cell-based
# Description: 3T3 cells and immune cells (neutrophils, DC cells, T-cells and macrophage) (10^4 cells) were seeded into confocal cell culture dishes (dia. 15 mm) and incubated for 24 h. […] After incubation, the medium was removed, and the cells were washed thrice. Chemiluminescence imaging of the cells were recorded on LX71 inverted microscope (Olympus), which was equipped with infinity 3-1 (Lumenera) CCD camera. During imaging, the excitation light was blocked and the images were recorded under an open filter, with an acquisition time of 60 s.
# NE [2] = molecular target: T1, NE; experiment: Enzyme kinetics study of NE with BTPDNe (Michaelis-Menten, HPLC); type: biochemical; conditions: NE 0.1 U/mL, BTPDNe 2-80 μM
# Description: To carry out the kinetic assay, various concentrations of BTPDNe (2, 5, 10, 20, 40 and 80 μM) were incubated with NE (0.1 U/mL) at 37° C. for 10 min in 50 mM Tris, 1 M NaCl, 0.05% (w/v) Brij-35, and at pH=7.5. After incubation, quantification analyses were determined by HPLC. The initial reaction velocity was calculated, plotted against the concentration of BTPDNe, and fitted to a Michaelis-Menten curve. Finally, the kinetic parameters were calculated by Michaelis Menten equation: […]
# where v is initial velocity, and [S] is substrate concentration.
# LPS-treated mice = experiment: Real-time chemiluminescence imaging in LPS-induced peritonitis model; type: in vivo
# Description: The model was induced by intraperitoneal injection of LPS (15 ng) in 100 μL of PBS or PBS only as a control. Probe BTPDNe (40 μM·Kg^−1) or MPDNe (40 μM·Kg^−1) in PBS (10 mM, pH 7.4) containing 10% DMSO was intraperitoneally injected in mice. Then, chemiluminescent signals at different post-injection timepoints (0, 5, 10, 20, 45 and 60 min) were recorded using IVIS system bioluminescence with acquiring time of 120 s. After 3 h, the peritoneum was flushed with PBS (5 mL)+EDTA (5 mM). After erythrocyte lysis, neutrophils from C57Bl/6 mice were stained with a PE-labeled CD. After treatment with LPS for 3 h, CD11c antibody and an APC-labeled Ly6G antibody were added to the neutrophils, and the neutrophils were analyzed for double-positive events using flow cytometry (BD Biosciences). Data analysis was performed using Flowjo V10. Neutrophils were gated as CD45+CD11b+Ly6G+cells after the exclusion of doublets.
# Fluorescence and chemiluminescence in vivo imaging of the probes were measured by an IVIS spectrum imaging system. Chemiluminescence imaging of the cells was recorded on LX71 inverted microscope. Tissue slices were cut by Leica, Germany slicer and imaged by a Nikon ECLIPSE 80i microscope. The images of tissue sections and cells were recorded with a LSM800 confocal laser scanning microscope. The white light was provided by 150 W LED High Bay Thermo Light.
smiles,measurement,setting,value
COC1(c2ccc(-c3nc4ccccc4s3)c(OCc3ccc(NC(=O)[C@@H](NC(=O)[C@@H]4CCCN4C(=O)[C@H](C)NC(=O)[C@H](C)NC(C)=O)C(C)C)cc3)c2)OOC12C1CC3CC(C1)CC2C3 (stereo partly shown) [BTPDNe],selectivity towards NE over other enzymes,"NE [1]; APN, ALP, Cas-3, cat B, GGT, furin, β-gal, NTR, PR3, CatG (~0.1 U/mL)",high selectivity
same,fluorescence increase after incubation with NE,"NE [1]; at 515 nm, probe 20 μM, NE 0.1 U/mL, 30 min",20.1 fold
same,chemiluminescence enhancement after incubation with NE,"NE [1]; probe 20 μM, NE 0.1 U/mL, 50 mM Tris, 1 M NaCl, 0.05% Brij-35, pH 7.5, 37° C., 30 min, BTPDNe at 515 nm, MPDNe at 550 nm",~42.3 fold
same,colocalization of probe activation with neutrophil marker,dorsal skins of mice,colocalized well with APC-Ly6G
same,differentiation of neutrophils from other immune cells,"neutrophils; neutrophil, DC, macrophage, CTL, 3T3, 20 μM",differentiated neutrophils from other immune cells
same,"activated chemiluminescence signal in neutrophils, 30 min","neutrophils; probe 10 μM, incubation 30 min",63.0 pixels
same,"activated chemiluminescence signal in neutrophils, 1 h","neutrophils; probe 10 μM, incubation 1 h",42.7 pixels
same,enzyme kinetic coefficient,NE [2],22000 M⁻¹ s⁻¹
same,Kcat,"NE [2]; 37° C., 10 min, pH 7.5",1.15 s⁻¹
same,Km,"NE [2]; 37° C., 10 min, pH 7.5",52.2 µM
same,chemiluminescent signal relative to MPDNe-injected mice,LPS-treated mice; 20 min post-treatment of probes,~2.15 fold
same,chemiluminescent signals after 60 min,"LPS-treated mice; LPS-treated mice, 60 min post injection",could still be observed
same,maximum chemiluminescent signal enhancement in peritoneum relative to negative control group,"LPS-treated mice; LPS-treated mice, 3 h post LPS, i.p. probe 40 μM·kg^−1",~9.2 fold
